The values below come from patent publication US12497394B2, “Fused-cyclic pyrazolone formamide compound and preparation method therefor, pharmaceutical composition and use thereof” (SHANGHAI INSTITUTE OF MATERIA MEDICA, CHINESE ACADEMY OF …, priority 2018, dated 2025).

In test [1] the target is T1, receptor tyrosine kinase AXL (Homo sapiens, UniProt P30530).
T1 construct: 50 μL of AXL kinase domain recombinant protein diluted in reaction buffer was added to start the reaction; made in house; host or cells: insect cells (baculovirus expression system)
T1 sequence (P30530 536-807 limits assumed): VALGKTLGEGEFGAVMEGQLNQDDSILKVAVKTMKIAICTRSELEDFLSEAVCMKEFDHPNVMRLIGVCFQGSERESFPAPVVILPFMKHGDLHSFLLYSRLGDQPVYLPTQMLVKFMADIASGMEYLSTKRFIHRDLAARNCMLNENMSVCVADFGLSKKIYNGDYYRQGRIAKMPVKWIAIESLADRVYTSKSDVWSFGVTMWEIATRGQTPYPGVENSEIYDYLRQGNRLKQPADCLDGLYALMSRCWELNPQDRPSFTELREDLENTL
The experiment in a line: Enzyme activity of receptor tyrosine kinase AXL (ELISA). The test is classed as biochemical. The settings on record: read-out: AXL activity Inhibitory rate(%); for inhibition at 0.001 µM: 1 nM; for inhibition at 0.01 µM: 10 nM; for inhibition at 0.1 µM: 100 nM. As for the experimental part: Detection method: Enzyme-linked immunosorbent assay (ELISA)
Tested receptor tyrosine kinase: AXL
The full-wavelength microplate reader for experiment reading was a product of Molecular Device, model: SpectraMax 190; the experiment water was distilled water produced by Sinopharm Group.
Compound preparation: The compounds were centrifuged at 12,000 g for 5 min, and DMSO was added to prepare a 10^−2M stock solution, vortexed evenly and sonicated for 10 min for use, and stored at −40° C. During the test, the compound was diluted from the stock solution to 100 times the tested concentration with DMSO (the DMSO concentration in the system was 1%).
1. […] Discard the liquid from the well. The plate was washed and washed three times with T-PBS (0.1% Tween-20 in potassium-free PBS, 200 μL/well) for 5 minutes each time.
2. 49 μL of ATP solution diluted with reaction buffer (50 mM HEPES pH 7.4, 50 mM MgCl2, 0.5 mM MnCl2, 0.2 mM Na3VO4, 1 mM DTT) was added to each well, and […] of the tested compound was added to each well, and then 50 μL of AXL kinase domain recombinant protein diluted in reaction buffer was added to start the reaction. Two control wells without ATP were added in each experiment. (100 rpm) Reacted in 37° C. shaker for 1 hour. Discard the liquid from the well, and the plate was washed with T-PBS for three times.
3. […] Discard the liquid from the well, and the plate was washed with T-PBS for three times.
4. The horseradish peroxidase-labeled goat anti-mouse second antibody dilution (antibody diluted 1:2000 with BSA 5 mg/mL in T-PBS), 100 μL/well, and reacted in 37° C. shaker for 0.5 hours. Discard the liquid from the well, and the plate was washed with T-PBS for three times.
6. The reaction was quenched with 50 μL/well 2M […], and read at 490 nm using a tunable microplate reader VERSAmax.
The IC50 values were obtained by four-parameter regression analysis using the software supplied with the microplate reader.

Test [2] deals with receptor tyrosine kinase c-Met (Homo sapiens, UniProt P08581). The experiment in a line: In vitro c-Met kinase inhibitory activity. The settings on record: two values per compound. The test is classed as biochemical. An excerpt: Experimental Example 3: Study of In Vitro c-Met Kinase Inhibitory Activity
Chain of receptor tyrosine kinase c-Met (P08581 25-1390): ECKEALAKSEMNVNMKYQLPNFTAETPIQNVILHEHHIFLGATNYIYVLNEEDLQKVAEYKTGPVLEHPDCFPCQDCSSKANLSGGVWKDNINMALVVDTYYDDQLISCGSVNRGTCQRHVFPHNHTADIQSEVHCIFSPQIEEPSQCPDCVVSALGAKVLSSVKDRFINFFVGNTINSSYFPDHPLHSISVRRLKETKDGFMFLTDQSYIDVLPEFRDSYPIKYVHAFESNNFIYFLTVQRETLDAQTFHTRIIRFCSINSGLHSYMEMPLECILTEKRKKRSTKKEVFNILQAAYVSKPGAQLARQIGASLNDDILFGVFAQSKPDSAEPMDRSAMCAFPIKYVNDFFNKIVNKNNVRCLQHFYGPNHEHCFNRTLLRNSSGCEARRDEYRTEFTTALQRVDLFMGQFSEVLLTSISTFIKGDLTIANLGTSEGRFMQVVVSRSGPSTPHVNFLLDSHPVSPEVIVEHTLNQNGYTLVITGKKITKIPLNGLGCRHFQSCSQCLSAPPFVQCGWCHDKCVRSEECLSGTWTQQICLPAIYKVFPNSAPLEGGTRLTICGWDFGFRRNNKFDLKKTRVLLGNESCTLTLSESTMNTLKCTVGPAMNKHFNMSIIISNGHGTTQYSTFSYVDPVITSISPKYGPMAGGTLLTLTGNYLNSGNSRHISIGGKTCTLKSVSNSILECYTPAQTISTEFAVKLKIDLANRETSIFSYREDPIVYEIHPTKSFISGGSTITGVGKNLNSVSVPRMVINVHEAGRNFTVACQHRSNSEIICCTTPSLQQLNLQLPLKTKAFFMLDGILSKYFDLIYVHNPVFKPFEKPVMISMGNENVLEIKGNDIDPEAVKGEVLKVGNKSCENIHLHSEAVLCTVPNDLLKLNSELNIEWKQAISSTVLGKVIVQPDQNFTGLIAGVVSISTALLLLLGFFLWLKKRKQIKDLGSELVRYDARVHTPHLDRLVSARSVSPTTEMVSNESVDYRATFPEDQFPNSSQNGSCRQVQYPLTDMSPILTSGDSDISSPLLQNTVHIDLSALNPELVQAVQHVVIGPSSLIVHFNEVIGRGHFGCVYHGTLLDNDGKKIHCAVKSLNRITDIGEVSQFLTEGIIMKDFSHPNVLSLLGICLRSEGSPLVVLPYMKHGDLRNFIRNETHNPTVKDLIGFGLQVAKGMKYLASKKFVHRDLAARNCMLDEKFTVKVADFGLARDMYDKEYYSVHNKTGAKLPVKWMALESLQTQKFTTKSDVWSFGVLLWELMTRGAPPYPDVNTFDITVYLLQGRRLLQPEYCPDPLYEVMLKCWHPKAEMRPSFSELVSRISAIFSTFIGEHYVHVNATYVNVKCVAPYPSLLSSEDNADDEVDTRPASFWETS
Since the screening results of 369 kinase profiles of compound DC621044 has shown that the compound has a certain inhibitory activity on c-Met. We further screened some compounds for their inhibitory activity on c-Met kinase.

The subject of test [3] is BaF3/TEL-AXL cells. The experiment in a line: Proliferation of BaF3/TEL-AXL cells. The test is classed as cell-based. The settings on record: two values per compound; for inhibition at 0.001 µM / inhibition at 0.01 µM / inhibition at 0.1 µM: BaF3/TEL-AXL, read-out: BaF3/TEL-AXL proliferation Inhibitory rate (%). The text has this: Experimental Example 4: Effect of the Compound on the Proliferation Effect of BaF3/TEL-AXL Cells
Based on the above-mentioned enzyme activity research results, we further explored the effect of the compound on cell proliferation mediated by receptor tyrosine kinase AXL.

Setting [4] is: 10 nM, read-out: c-Met Inhibitory rate (%).
Setting [5] is: 100 nM, read-out: c-Met Inhibitory rate (%).

With `COCCOc1cc2ncnc(Oc3ccc(NC(=O)c4c5n(n(-c6ccc(F)cc6)c4=O)CCCC5)c(F)c3)c2cc1OCCOC` [DC621060, N-(4-((6,7-bis(2-methoxyethoxy)quinazolin-4-yl)oxy)-2-fluorophenyl)-1-(4-fluorophenyl)-2-oxo-1,2,4,5,6,7-hexahydropyrazolo[1,5-a]pyridine-3-formamide], the figures for the inhibition at 0.001 µM in test [1] and in test [3] (1 nM) were 21.5% and 64.5%, respectively. The figures for the inhibition at 0.01 µM in test [1], in test [2] (setting [4]) and in test [3] (10 nM) were 54.4%, 43.9% and 71%, respectively. Also, the results for the inhibition at 0.1 µM in test [1], in test [2] (setting [5]) and in test [3] (100 nM) were 84.2%, 91.9% and 85.4%, respectively. The “c-Met Inhibitory rate (%)” value was 58.1% in test [2] (10 nM, 0.01 µM) and 95.4% in test [2] (100 nM, 0.1 µM). Further, the “BaF3/TEL-AXL proliferation Inhibitory rate (%)” value was determined as 66.3% in test [3] (1 nM, 0.001 µM); 73.4% in test [3] (10 nM, 0.01 µM); 85.3% in test [3] (100 nM, 0.1 µM).

In the case of `O=C(Nc1ccc(Oc2ncnc3cc4c(cc23)OCCOCCOCCO4)c(F)c1)c1c2n(n(-c3cc(F)ccc3F)c1=O)CCCC2` [DC621063, 1-(2,5-difluorophenyl)-N-(3-fluoro-4-((7,8,10,11,13,14-hexahydro-[1,4,7,10]tetraoxacyclododecane[2,3-g]quinazolin-4-yl)oxy)phenyl)-2-oxo-1,2,4,5,6,7-hexahydropyrazolo[1,5-a]pyridine-3-formamide], the inhibition at 0.001 µM in test [1] worked out at 11.5%; in test [2] (1 nM, read-out: c-Met Inhibitory rate (%)), 17.7%; in test [3] (1 nM), 47.8%. The results for the inhibition at 0.01 µM in test [1], in test [2] (setting [4]) and in test [3] (10 nM) were 60.5%, 46.4% and 67.2%, respectively. Besides, the values for the inhibition at 0.1 µM in test [1], in test [2] (setting [5]) and in test [3] (100 nM) were 91.8%, 94.8% and 82.3%, respectively. In addition, the “c-Met Inhibitory rate (%)” value in test [2] (1 nM, 0.001 µM) is recorded as 32.4%; in test [2] (10 nM, 0.01 µM), 56.2%; in test [2] (100 nM, 0.1 µM), 99.2%. Further, the “BaF3/TEL-AXL proliferation Inhibitory rate (%)” value in test [3] (1 nM, 0.001 µM) was 61.0%; in test [3] (10 nM, 0.01 µM), 66.0%; in test [3] (100 nM, 0.1 µM), 78.2%.
